Values joined by “and” are separate entries in the source; they are usually repeats but may differ in a detail not shown here. Equal entries are not always repeated.
Tests used:
[1] = system: TTR rat gene; assay: In vivo editing in rat liver, sgRNA targeting TTR (G534), % indel by NGS; set-up: species or system Sprague Dawley female rats; details: G534 sgRNA + Cas9 mRNA LNP, Experiment 109
Method: Sprague Dawley female rats ranging from 6-7 weeks of age were used in each study. Each animal was weighed and dosing solutions were prepared based on body weight. LNPs were dosed via the lateral tail vein in a volume of 0.35 mL per animal (approximately 2 mL per kilogram body weight). The animals were periodically observed for adverse effects for at least 24 hours post dose.
For studies measuring in vivo editing in liver, animals were dosed at 0.1 mg/kg or 0.3 mg/kg. Animals were euthanized by CO2 asphyxiation 6 days post dose. At necropsy, the liver was collected for editing analysis by NGS and blood was collected into serum separator tubes for serum TTR measurement.
In brief, to quantitatively determine the efficiency of editing at the target location in the genome, genomic DNA was isolated and deep sequencing was utilized to identify the presence of insertions and deletions introduced by gene editing.
PCR primers were designed around the target site (e.g., within B2M), and the genomic area of interest was amplified. Additional PCR was performed according to the manufacturer's protocols (Illumina) to add the necessary chemistry for sequencing. The amplicons were sequenced on an Illumina MiSeq instrument. The reads were aligned to the mouse or rat reference genome (e.g., GRCm38) after eliminating those having low quality scores. The resulting files containing the reads were mapped to the reference genome (BAM files), where reads that overlapped the target region of interest were selected and the number of wild type reads versus the number of reads which contain an insertion, substitution, or deletion was calculated.
The editing percentage (e.g., the “indel efficiency” or “percent indels”) was defined as the total number of sequence reads with insertions or deletions over the total number of sequence reads, including wild type.
In vivo delivery in a rat model was assessed by measuring editing efficiency for materials delivered with formulations including various amine lipid compounds. Cas9 mRNA (SEQ ID NO: 6) was formulated as LNPs with an sgRNA targetting the TTR rat gene (G534, SEQ ID NO: 5). LNPs were formulated and characterized as described in Example 123. Analysis of average particle size, polydispersity (PDI), total RNA content and encapsulation efficiency of RNA are shown in Table 10.
Sprague Dawley female rats were dosed i.v. at 0.1 or 0.3 mg/kg and assessed for editing in liver.

[2] = pKa measurement of unformulated amine lipid (fluorescence, method of Jayaraman et al.); assay type: physicochemical; details: 100 μM in 0.1 M phosphate buffer, pH 2.0-12.0
Method: The pKa of each amine lipid was determined according to the method in Jayaraman, et al. (Angewandte Chemie, 2012) with the following adaptations. […] Lipid was diluted to 100 μM in 0.1 M phosphate buffer (Boston Bioproducts) where the pH ranged from 2.0-12.0. Fluorescence intensity was measured using excitation and emission wavelengths of 321 nm and 448 nm.

[3] = Dynamic light scattering of LNPs: Z-average diameter, number average diameter, PDI; assay type: physicochemical
In short: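 LNP samples were diluted in PBS and measured by DLS to give intensity-based Z-average diameter, number average diameter and polydispersity index. PDI describes size spread around the mean, with zero meaning a uniform population.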

[4] = system: Transthyretin (TTR); assay: Serum TTR measurement in rats after LNP dosing; assay type: in vivo, Sprague Dawley female rats; details: Experiment 109; for Serum TTR % TSS: rat serum TTR relative to TSS control; for Serum TTR: rat serum, G534 sgRNA + Cas9 mRNA LNP
[5] = RNA encapsulation efficiency of LNPs (Ribogreen fluorescence assay); assay type: physicochemical; details: for % E (encapsulation efficiency): LNP with G534 sgRNA and Cas9 mRNA, sg:mRNA 1:2, experiment 109; for % E / Encapsulation (%): LNP
In short: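 LNPs were diluted in 1× TE with 0.2% Triton X-100 (total RNA) or without it (free RNA), stained with RiboGreen for ~10 min at room temperature in the dark, and read at Ex 488/Em 525 nm against standard curves of the starting RNA. Encapsulation efficiency = (Total − Free)/Total.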

[6] = LNP with G534 sgRNA and Cas9 mRNA, sg:mRNA 1:2, experiment 109
[7] = LNP, sg:mRNA 1:1, N/P 6.0, 50/9/38/3, Table 4, Experiments 101-104
[8] = LNP, sg:mRNA 1:1.3, N/P about 6, 50/9/38/3, Table 2, Experiment 1
[9] = LNP, sg:mRNA 1:2, N/P 6.0, 50/9/38/3, Table 4, Experiment 105
[10] = LNP, sg:mRNA 1:2, N/P about 6, 50/9/38/3, G650, Table 8, Experiment 108
[11] = LNP, sg:mRNA 1:2, N/P about 6, 50/9/38/3, Table 6, Experiments 106-107
[12] = sg:mRNA 1:1, N/P 6.0, 50/9/38/3, Table 4, Experiments 101-104
[13] = sg:mRNA 1:1, N/P about 6, amine lipid/DSPC/cholesterol/PEG-2k-DMG 50/9/38/3, Table 2, Experiments 2-20
[14] = sg:mRNA 1:2, N/P 6.0, 50/9/38/3, Table 4, Experiment 105
[15] = sg:mRNA 1:2, N/P about 6, 50/9/38/3, G650 sgRNA, Table 8, Experiment 108
[16] = LNP, sg:mRNA 1:1, N/P about 6, 50/9/38/3, Table 2, Experiments 2-20

SMILES | pKa [2] | Number mean (nm) [3, 6] | PDI [3, 6] | Z-avg (nm) [3, 6] | Number mean (nm) [3, 7] | Z-avg (nm) [3, 7] | Number mean (nm) [3, 9] | PDI [3, 9] | Z-avg (nm) [3, 9] | % E (encapsulation efficiency) [5] | % E [5, 12] | Encapsulation (%) [5, 13] | Number mean (nm) [3, 16] | Z-avg (nm) [3, 16] | Editing Mean % Indel ([1]; i.v. 0.1 mg/kg) | Editing Mean % Indel ([1]; i.v. 0.3 mg/kg) | Serum TTR % TSS ([4]; G534, i.v. 0.1 mg/kg) | Serum TTR % TSS ([4]; G534, i.v. 0.3 mg/kg) | Serum TTR ([4]; i.v. 0.1 mg/kg) | Serum TTR ([4]; i.v. 0.3 mg/kg) | also measured
CCCCC/C=C\C/C=C\CCCCCCCC(=O)OCC(COC(=O)CCC(OCCCCCCCC)OCCCCCCCC)COC(=O)OCCCN(CC)CC (stereo not shown) [Compound 1, 3-((4,4-bis(octyloxy)butanoyl)oxy)-2-((((3-(diethylamino)propoxy)carbonyl)oxy)methyl)propyl (9Z,12Z)-octadeca-9,12-dienoate, reference compound] | 6.4 | 73 nm | 0.01 | 88 nm | 69.51 nm and 62.86 nm and 64.97 nm and 63.19 nm | 84.93 nm and 79.83 nm and 82.71 nm and 79.18 nm | 73.15 nm | 0.033 | 88.60 nm | 98% | 98% and 99% and 97% | 96% and 99% and 98% and 97% |  |  | 21.1% | 61.3% | 56.6 % TSS | 7.1 % TSS | 916.9 µg/mL | 114.3 µg/mL | Number mean (nm) [3, 8]: 63.16 nm; PDI [3, 8]: 0.022; Z-avg (nm) [3, 8]: 77.85 nm; Number mean (nm) [3, 10]: 70 nm; PDI [3, 10]: 0.03; Z-avg (nm) [3, 10]: 86 nm; Number mean (nm) [3, 11]: 76 nm and 71 nm; Z-avg (nm) [3, 11]: 91 nm and 88 nm; Encapsulation (%) ([5]; sg:mRNA 1:1.3, N/P about 6, amine lipid/DSPC/cholesterol/PEG-2k-DMG 50/9/38/3, Table 2, Experiment 1): 97%; % E [5, 14]: 99%; % E [5, 15]: 98%; % E ([5]; sg:mRNA 1:2, N/P about 6, 50/9/38/3, TTR sgRNA (SEQ ID NO: 4), Table 6, Experiments 106-107): 99%
CCCCC/C=C\C/C=C\CCCCCCCC(=O)OCC(COC(=O)CCC(OCCCCCCCC)OCCCCCCCC)COC(=O)NCC1CCCN1CC (stereo not shown) [Compound 40, 3-((4,4-bis(octyloxy)butanoyl)oxy)-2-(((((1-ethylpyrrolidin-2-yl)methyl)carbamoyl)oxy)methyl)propyl (9Z,12Z)-octadeca-9,12-dienoate] | 7.33 |  |  |  | 66.92 nm | 83.69 nm |  |  |  |  | 95% | 98% | 56.73 nm | 74.12 nm |  |  |  |  |  |  | PDI [3, 7]: 0.014; PDI [3, 16]: 0.056
CCCCC/C=C\C/C=C\CCCCCCCC(=O)OCC(COC(=O)CCC(OCCCCCCCC)OCCCCCCCC)COC(=O)OCC1CCCN(C)C1 (stereo not shown) [Compound 53, 3-((4,4-bis(octyloxy)butanoyl)oxy)-2-(((((1-methylpiperidin-3-yl)methoxy)carbonyl)oxy)methyl)propyl (9Z,12Z)-octadeca-9,12-dienoate] | 6.85 |  |  |  | 56.05 nm | 70.47 nm |  |  |  |  | 99% | 99% | 60.35 nm | 76.24 nm |  |  |  |  |  |  | PDI [3, 7]: 0.019; PDI [3, 16]: 0.040
CCCCC/C=C\C/C=C\CCCCCCCC(=O)OCC(COC(=O)CC12CC3CC(CC(C3)C1)C2)COC(=O)OCCCN(CC)CC (stereo not shown) [Compound 107, 3-(2-((3 r,5 r, 7r)-adamantan-1-yl)acetoxy)-2-((((3-(diethylamino)propoxy)carbonyl)oxy)methyl)propyl (9Z,12Z)-octadeca-9,12-dienoate] | 6.43 |  |  |  |  |  |  |  |  |  |  |  |  |  |  |  |  |  |  |  | Number mean (nm) [3, 10]: 65 nm; PDI [3, 10]: 0.07; Z-avg (nm) [3, 10]: 84 nm; % E [5, 15]: 94%

Continued, in another order:

pKa [2] | Number mean (nm) [3, 6] | PDI [3, 6] | Z-avg (nm) [3, 6] | Number mean (nm) [3, 7] | Z-avg (nm) [3, 7] | Number mean (nm) [3, 9] | PDI [3, 9] | Z-avg (nm) [3, 9] | % E (encapsulation efficiency) [5] | % E [5, 12] | Encapsulation (%) [5, 13] | Number mean (nm) [3, 16] | Z-avg (nm) [3, 16] | SMILES | Editing Mean % Indel ([1]; i.v. 0.1 mg/kg) | Editing Mean % Indel ([1]; i.v. 0.3 mg/kg) | Serum TTR % TSS ([4]; G534, i.v. 0.1 mg/kg) | Serum TTR % TSS ([4]; G534, i.v. 0.3 mg/kg) | Serum TTR ([4]; i.v. 0.1 mg/kg) | Serum TTR ([4]; i.v. 0.3 mg/kg) | also measured
6.4 | 75 nm | 0.04 | 91 nm | 72.60 nm and 67.12 nm | 87.31 nm and 83.42 nm | 79.11 nm | 0.041 | 96.76 nm | 98% | 98% and 96% | 99% and 97% | 84.05 nm and 73.04 nm | 100.4 nm and 87.86 nm | CCCCCCCCCCOC(=O)CCCCCCCC(=O)OCC(COC(=O)CCC(OCCCCCCCC)OCCCCCCCC)COC(=O)OCCCN(CC)CC (stereo not shown) [Compound 59, 1-(3-((4,4-bis(octyloxy)butanoyl)oxy)-2-((((3-(diethylamino)propoxy)carbonyl)oxy)methyl)propyl) 9-decyl nonanedioate] | 12.4% | 46.2% | 69.4 % TSS | 20.9 % TSS | 1124.0 µg/mL | 337.9 µg/mL | PDI [3, 7]: 0.012 and 0.024; % E [5, 14]: 99%
6.14 | 77 nm | 0.02 | 95 nm |  |  | 80.04 nm | 0.032 | 98.90 nm | 97% |  | 99% | 78.22 nm | 96.35 nm | CCCCCCCCCC(C)OC(=O)CCCCCCCC(=O)OCC(COC(=O)CCC(OCCCCCCCC)OCCCCCCCC)COC(=O)OCCCN(CC)CC (stereo not shown) [Compound 94, 1-(344,4-bis(octyloxy)butanoyl)oxy)-2-((((3-(diethylamino)propoxy)carbonyl)oxy)methyl)propyl) 9-(undecan-2-yl) nonanedioate] | 31.7% | 60.0% | 39.5 % TSS | 8.2 % TSS | 639.5 µg/mL | 132.9 µg/mL | PDI [3, 16]: 0.018; % E [5, 14]: 99%
